{"source": "patent US10907168B2", "about": "“Jasmonic acid pathway activator” (MEDICAGO INC., priority 2015, dated 2021)", "tested_on": "C5-1 antibody", "experiment": "C5-1 antibody quantification by ELISA in agroinfiltrated leaves", "type": "in vivo, Nicotiana benthamiana", "description": "Forty-two day-old N. benthamiana plants grown in greenhouse were used for the experiments. Each plant was sprayed evenly with 50 ml of 0.5 mM, 1 mM or 2 mM MeJA in water containing 0.1% (v/v) Triton X-100 (Sigma-Aldrich, Mississauga ON, Canada), or with 50 ml of 1 mM arachidonic acid (Girard et al., 2007) in the same solvent, and transferred for seven days in a Conviron growth chamber (Conviron, Winnipeg MB, Canada). Plants sprayed with 50 ml of 0.1% (v/v) Triton X-100 in water were used in parallel as negative controls to avoid confounding effects due to experimental conditions. Two or three 1-cm^2 leaf discs were harvested from the third main stem leaf (see Robert et al., 2013) after seven days, as source material for protein and RNA extraction. The leaf samples were frozen immediately in liquid nitrogen and stored at −80° C. until protein or RNA extraction. Three to five biological (plant) replicates were used for each treatment, to allow for statistical treatment of the data. Two gene vectors were used for the agroinfiltration assays: an engineered pcambia2300 vector encoding the light and heavy chains of C5-1 fused to an N-terminal signal peptide sequence for cellular secretion (see Goulet et al., 2012 for details on gene construct); and the original (“empty”) pcambia2300 binary vector (CAMBIA, Canberra, Australia) as a control for agroinfection. The two binary vectors were electroporated into A. tumefaciens strain LBA4404 and the cultures were maintained in Luria-Bertani (LB) medium supplemented with 50 μg/ml kanamycin and 50 μg/ml rifampicin. For infiltration, bacteria were grown to stable phase at 28° C. to an OD600 of 1.0 and collected by centrifugation at 2,000 g. The bacterial pellets were resuspended in 10 mM 2-[N-morpholino] ethanesulfonic acid] (MES) buffer, pH 5.8, containing 100 μM acetosyringone and 10 mM MgCl2. Leaf infiltration was performed using a needle-less syringe as described earlier (D'Aoust et al., 2009), after mixing the C5-1 antibody (or empty vector) agrobacterial suspension with an equal volume of bacterial suspension carrying a binary vector for the protein silencing suppressor p19 (Voinnet et al., 2003). Infiltrated tissue for molecular characterization was collected six days post-infection (i.e. seven days post-MeJA or arachidonate treatment), unless otherwise indicated. Three to five biological (plant) replicates were used for each treatment to allow for statistical analyses. ELISA plates for C5-1 antibody quantification (Becton Dickinson, Mississauga ON, Canada) were coated with 3.75 μg/ml goat anti-mouse heavy chain-specific IgG1 (Sigma-Aldrich) in 50 mM carbonate buffer (pH 9.0) at 4° C. for 16-18 h. The plates were washed three times in 10 mM phosphate-buffered saline containing 0.1% (v/v) Tween 20 (PBS-T), blocked through a 1-h incubation at 37° C. in 1% (w/v) casein in phosphate-buffered saline (PBS) (Pierce, Rockford Ill., USA), and washed three times in PBS-T. A standard curve was generated for each plate with 0, 4, 8, 16, 24, 32, 40 and 60 ng/ml of purified mouse IgG1 (Sigma-Aldrich). All dilutions (controls and samples) were performed in a control extract obtained from leaf tissue infiltrated with a mock inoculum so that any matrix effect was eliminated. The plates were incubated with protein samples for 1 h at 37° C., washed three times in PBS-T and then incubated with peroxidase-conjugated goat anti-mouse IgG (H+L) antibodies (0.02 μg/ml in blocking solution) (Jackson ImmunoResearch) for 1 h at 37° C. After additional washes with PBS-T, the plates were incubated with the 3,3′,5,5′-tetramethylbenzidine Sure Blue peroxidase substrate (KPL, Gaithersburg Md., USA). The reaction was stopped by the addition of 1 N HCl and the absorbance was read at 450 nm. Three independent (biological) replicates were used for each assay.", "key": {"[1]": {"conditions": "ELISA, 1 mM, 24 h before infiltration"}}}
{"smiles": "CC/C=C\\C[C@H]1C(=O)CC[C@@H]1CC(=O)OC", "note": "[MeJA, methyl jasmonate]", "values": [{"measurement": "C5-1 yield change", "setting": "1 mM, 24 h before infiltration, antibody expressed under alfalfa plastocyanin promoter", "value": "more than twofold decrease"}, {"measurement": "C5-1 net yield as share of TSP", "setting": "[1]", "value": "~7", "unit": "% TSP"}, {"measurement": "C5-1 net yield on a protein-relative basis", "setting": "[1]", "value": "70 ng antibody/μg soluble proteins"}, {"measurement": "C5-1 protein-relative yield compared with control leaves", "setting": "ELISA, 1 mM, 24 h before infiltration, P<0.05", "value": "about twice"}, {"measurement": "C5-1 yield on a weight basis", "setting": "ELISA, 1 mM, 24 h before infiltration, maximum yield", "value": "~425", "unit": "μg/g leaf tissue"}, {"measurement": "C5-1 yield on a weight basis", "setting": "ELISA, 2 mM, 24 h before infiltration", "value": "~325", "unit": "μg/g leaf tissue"}, {"measurement": "C5-1 yield change", "setting": "ELISA, sprayed 24 h post-infiltration (0.5 or 1 mM)", "value": "No yield increase"}]}
